Data on 22 compounds can be found in patent publication US5804576A, “Derivatives of 5-androsten-17-ones and 5-androstan-17-ones” (Research Corporation Technologies, Inc., priority 1986, dated 1998).

As usually defined, the inhibition is the share of the control response that was lost under treatment.

Assay [1] concerns the target T1, purified bovine adrenal G6PDH (Bos taurus, UniProt F1MMK2).
T1 construct: full-length, wild type, no tag
As to the kind of experiment: Inhibition of purified bovine adrenal G6PDH. The assay is classed as biochemical. To be noted: for inhibition at 10 µM: Conc. 10 μm; for inhibition at 10 µM / inhibition at 1 µM / inhibition at 0.1 µM: read-out: Percent Inhibition (G6PDH); for inhibition at 1 µM: Conc. 1 μm; for inhibition at 0.1 µM: Conc. 0.1 μm. The text has this: The compounds listed below are screened as inhibitors of purified bovine adrenal G6PDH activity as one predictor of cancer preventive action. The assay for testing the inhibition of purified bovine adrenal G6PDH is according to the procedure by Oertel, G. W. and Rebelein, I. in Biochem. Biophys. Acta, 184, 459-460 (1969). The results are given below in Table I:
Both of the above tests, i.e., the inhibition of mammalian glucose-6-phosphate dehydrogenase (G6PDH) and the inhibition of tumor promoter (TPA) stimulation of ^3 H-thymidine incorporation in mouse epidermis are recognized as indicators of cancer prophylactic activity. The following Table compares the efficacy of representative compounds of the present invention in these two tests with that of DHEA: […]

Assay [2] is described as follows: Anti-obesity test (body weight, food consumption). The assay is classed as in vivo, mouse (male A/J). Conditions: Table 14; DHEA = 1×. How it is done: Male A/J mice (5 weeks old) were obtained from the Jackson Laboratory and were housed in polycarbonate cages (5 mice/cage) in animal quarters maintained at 24°±1° C. with 12 hours of light and 12 hours of darkness each day. One week after arrival, the mice were placed on a chow diet containing varying concentrations of DHEA or other steroid. Animals were weighed weekly; food consumption was determined weekly by subtracting the amount of food remaining in the cage from the amount added.
Male A/J (5 weeks old) were obtained from the Jackson Laboratory and were housed in polycarbonate cages (5 mice/cage) in animal quarters maintained at 24°±1° C. with 12 hours of light and 12 hours of darkness each day. One week after arrival, the mice were placed on a diet containing either DHEA, 19, or without steroid. Animals were weighed weekly. The concentration of DHEA or 19 used in the food was 0.54%.
Male A/J mice (5 weeks old) were obtained from the Jackson Laboratory and were housed in polycarbonate cages (5 mice/cage) in animal quarters maintained at 24°±1° C. with 12 hours of light and 12 hours of darkness each day. One week after arrival, the mice were placed on a show diet containing DHEA, 16, or 21 at 0.36%. Animals were weighed weekly.

T1 sequence (F1MMK2 31-70): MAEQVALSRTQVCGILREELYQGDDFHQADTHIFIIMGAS
T1 sequence (F1MMK2 101-575): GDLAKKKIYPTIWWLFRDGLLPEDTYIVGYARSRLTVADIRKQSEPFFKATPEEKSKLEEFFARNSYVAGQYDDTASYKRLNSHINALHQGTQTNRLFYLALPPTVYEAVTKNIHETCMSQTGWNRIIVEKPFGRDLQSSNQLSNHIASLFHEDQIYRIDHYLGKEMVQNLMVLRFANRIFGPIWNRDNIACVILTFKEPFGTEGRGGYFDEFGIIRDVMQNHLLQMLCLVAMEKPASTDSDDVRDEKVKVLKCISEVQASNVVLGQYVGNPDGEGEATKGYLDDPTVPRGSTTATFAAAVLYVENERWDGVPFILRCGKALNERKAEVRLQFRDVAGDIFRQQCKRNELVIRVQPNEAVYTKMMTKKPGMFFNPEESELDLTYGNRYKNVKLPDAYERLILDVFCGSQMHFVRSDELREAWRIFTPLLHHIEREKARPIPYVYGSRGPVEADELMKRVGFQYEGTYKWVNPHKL

For `C[C@@H]1C[C@@]2(C)C(=CC[C@@H]3[C@@H]2CC[C@]2(C)C(=O)CC[C@@H]32)C[C@H]1O`, in assay [1] (Table 3, DHEA = 1×), the “G6PDH Inhibition relative to DHEA” value is reported as ~ 1 ×. As to `C[C@]12CC[C@H](O)C[C@@H]1CC[C@@H]1[C@@H]2CC[C@]2(C)C(=O)[C@H](Br)C[C@@H]12` [Compound 4], the inhibition at 10 µM in assay [1] was found to be 90%.

Regarding `C[C@]12CC[C@H](O)CC1=CC[C@@H]1[C@@H]2CC[C@]2(C)C(=O)[C@H](Br)C[C@@H]12` [Compound 5], the inhibition at 10 µM in assay [1] was found to be 74%. For the compound `C[C@]12CC[C@H](O)C[C@@H]1CC[C@@H]1[C@@H]2CC[C@]2(C)C(=O)[C@H](Cl)C[C@@H]12` [Compound 6], the inhibition at 10 µM in assay [1] was found to be 72%. The same measure, in the same setting: for `C[C@]12CC[C@H](O)C[C@@H]1CC[C@@H]1[C@@H]2CC[C@]2(C)C(=O)[C@H](I)C[C@@H]12` [Compound 7] the value was 51%. Turning to `C[C@]12CC[C@H](O)C[C@@H]1CC[C@@H]1[C@@H]2CC[C@]2(C)C(=O)[C@H](F)C[C@@H]12` [Compound 8], in assay [1], the inhibition at 10 µM worked out at 66%. Turning to `C[C@]12CC[C@H](F)CC1=CC[C@@H]1[C@@H]2CC[C@]2(C)C(=O)CC[C@@H]12` [Compound 9], in assay [1], the inhibition at 10 µM was determined as 22%. Still for that read-out and setting: then `C[C@]12CC[C@@H](O)C[C@@H]1CC[C@@H]1[C@@H]2CC[C@]2(C)C(=O)CC[C@@H]12` [Compound 10], with 35%. On the same count and under the same terms, then `C[C@@H]1[C@H](O)CC[C@@]2(C)[C@H]1CC[C@@H]1[C@@H]2CC[C@]2(C)C(=O)CC[C@@H]12` [Compound 11], with 35%. With `C[C@H]1C2=CC[C@@H]3[C@H](CC[C@]4(C)C(=O)CC[C@@H]34)[C@@]2(C)CC[C@@H]1O` [Compound 11a], in assay [1], the inhibition at 1 µM worked out at 72% and the inhibition at 10 µM came to 87%.

In the case of `CC1(C)C2=CC[C@@H]3[C@H](CC[C@]4(C)C(=O)CC[C@@H]34)[C@@]2(C)CC[C@@H]1O` [Compound 12], the inhibition at 10 µM in assay [1] was found to be 48%. For the compound `CC[C@H]1CC[C@@]2(C)C(=CC[C@@H]3[C@@H]2CC[C@]2(C)C(=O)CC[C@@H]32)C1` [Compound 13], in assay [1], the inhibition at 0.1 µM stood at 58%, the inhibition at 1 µM turned out to be 55% and the inhibition at 10 µM came to 73%. Consider `C[C@]12CCCCC1=CC[C@@H]1[C@@H]2CC[C@]2(C)C(=O)CC[C@@H]12` [Compound 14], for which, in assay [1], the inhibition at 1 µM amounted to 30% and the inhibition at 10 µM was determined as 75%. With `CCCC[C@H]1CC[C@@]2(C)C(=CC[C@@H]3[C@@H]2CC[C@]2(C)C(=O)CC[C@@H]32)C1` [Compound 17], in assay [1], the inhibition at 0.1 µM stood at 49%, the inhibition at 1 µM worked out at 45% and the inhibition at 10 µM is 60%.

Regarding `CC1=C2C[C@@H](O)CC[C@]2(C)[C@H]2CC[C@]3(C)C(=O)CC[C@H]3[C@@H]2C1` [Compound 18], in assay [1], the inhibition at 0.1 µM amounted to 10%, the inhibition at 1 µM stood at 18% and the inhibition at 10 µM was 45%. On to `C[C@]12CC[C@H](O)C[C@@H]1CC[C@@H]1[C@@H]2CC[C@]2(C)C(=O)CC[C@@H]12` [drawing 95], for which the “Anti-obesity Activity relative to DHEA” value in assay [2] is ~ 0.5 ×. As to `C[C@]12CCCC[C@@H]1CC[C@@H]1[C@@H]2CC[C@]2(C)C(=O)CC[C@@H]12` [drawing 96], the “Anti-obesity Activity relative to DHEA” value in assay [2] was ~ 0.5 ×.

In the case of `C[C@H]1CC[C@@]2(C)C(=CC[C@@H]3[C@@H]2CC[C@]2(C)C(=O)CC[C@@H]32)C1` [drawing 97], the “Anti-obesity Activity relative to DHEA” value in assay [2] is ~ 3 ×. As for `C[C@H]1CC[C@@]2(C)C(=CC[C@@H]3[C@@H]2CC[C@]2(C)C(=O)[C@H](O)C[C@@H]32)C1` [drawing 98], the “Anti-obesity Activity relative to DHEA” value in assay [2] is reported as ~ 0.8 ×. Same read-out and setting: for `C[C@H]1CC[C@@]2(C)C(=CC[C@@H]3[C@@H]2CC[C@]2(C)C(=O)[C@H](C)C[C@@H]32)C1` [drawing 99] the value was ~ 1 ×. On to `C[C@]12CC[C@H](Cl)CC1=CC[C@@H]1[C@@H]2CC[C@]2(C)C(=O)CC[C@@H]12` [drawing 100], for which the “Anti-obesity Activity relative to DHEA” value in assay [2] is ~ 1 ×.

As to `CC[C@H]1CC[C@@]2(C)C(=CC[C@@H]3[C@@H]2CC[C@]2(C)C(=O)CC[C@@H]32)C1` [drawing 101], the “Anti-obesity Activity relative to DHEA” value in assay [2] is listed as ~ 0.5 ×.
